From ChEMBL document CHEMBL1138480, “Discovery of highly potent and selective biphenylacylsulfonamide-based beta3-adrenergic receptor agonists and evaluation of physical properties as potential overactive bladder therapies: part 5” (J Med Chem, 2009)

Columns and labels:
[1] = Protein binding in Beagle dog serum; format: ADME, cell-free, Canis lupus familiaris; conditions: read-out: PPB (converted)
[2] = target: Beta-1 adrenergic receptor (Homo sapiens, UniProt P08588)
Description: Agonist activity at human recombinant beta-1 adrenergic receptor expressed in CHO cells assessed as cAMP accumulation by enzyme immunoassay

[3] = Cmax in Beagle dog at 0.10 mg/kg, po; format: ADME, organism-based, Canis lupus familiaris; parameters: dose 0.1 mg/kg, route oral; conditions: in vivo, 0.1 mg/kg
[4] = Metabolic stability in rat liver microsomes assessed as intrinsic clearance after 120 mins in presence of NADPH; format: ADME, Microsome
[5] = target: Beta-2 adrenergic receptor (Homo sapiens, UniProt P07550)
Sequence of Beta-2 adrenergic receptor (P07550 whole entry): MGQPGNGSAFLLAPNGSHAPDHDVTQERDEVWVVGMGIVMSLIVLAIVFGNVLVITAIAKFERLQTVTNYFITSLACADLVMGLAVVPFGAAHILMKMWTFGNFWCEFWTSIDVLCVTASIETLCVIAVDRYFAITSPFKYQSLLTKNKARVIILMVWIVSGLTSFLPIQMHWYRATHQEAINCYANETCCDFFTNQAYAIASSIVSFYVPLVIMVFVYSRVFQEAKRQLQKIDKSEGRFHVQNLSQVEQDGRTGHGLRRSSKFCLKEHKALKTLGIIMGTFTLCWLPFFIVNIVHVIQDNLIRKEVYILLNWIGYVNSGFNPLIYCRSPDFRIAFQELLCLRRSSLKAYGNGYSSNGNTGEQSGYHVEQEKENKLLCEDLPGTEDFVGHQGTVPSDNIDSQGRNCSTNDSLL
Description: Agonist activity at human recombinant beta2 adrenergic receptor expressed in CHO cells assessed as cAMP accumulation by enzyme immunoassay

[6] = AUC (0 to 24 hrs) in Beagle dog at 0.10 mg/kg, po; format: ADME, organism-based, Canis lupus familiaris; parameters: time < 24 hr, dose 0.1 mg/kg, route oral; conditions: plasma, 0.1 mg/kg
[7] = target: Beta-3 adrenergic receptor (Canis lupus familiaris, UniProt O02662); test: Agonist activity at dog recombinant beta3 adrenergic receptor expressed in CHO cells assessed as cAMP accumulation by enzyme immunoassay; format: functional, cell-based
Sequence of Beta-3 adrenergic receptor (Canis lupus familiaris, UniProt O02662) (O02662 whole entry): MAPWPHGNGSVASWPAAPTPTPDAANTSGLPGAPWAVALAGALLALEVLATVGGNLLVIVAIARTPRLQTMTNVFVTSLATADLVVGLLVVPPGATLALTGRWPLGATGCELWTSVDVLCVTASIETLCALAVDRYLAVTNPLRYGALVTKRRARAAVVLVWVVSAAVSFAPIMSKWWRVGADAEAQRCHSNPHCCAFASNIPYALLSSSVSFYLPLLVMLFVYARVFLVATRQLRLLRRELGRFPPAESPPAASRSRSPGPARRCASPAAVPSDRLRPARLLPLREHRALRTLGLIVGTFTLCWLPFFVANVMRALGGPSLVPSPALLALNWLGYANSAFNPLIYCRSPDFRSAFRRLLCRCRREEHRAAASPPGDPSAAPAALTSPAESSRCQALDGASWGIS

[8] = Bioavailability in Beagle dog at 0.10 mg/kg, po and iv by cassette assay; format: ADME, organism-based, Canis lupus familiaris; conditions: in vivo, 0.1 mg/kg
[9] = AUC (0 to 24 hrs) in Beagle dog at 0.10 mg/kg, po by cassette assay; format: ADME, organism-based, Canis lupus familiaris; parameters: time < 24 hr, dose 0.1 mg/kg, route oral; conditions: plasma, 0.1 mg/kg
[10] = Cmax in rat at 0.32 mg/kg, po by cassette assay; format: ADME, organism-based; parameters: dose 0.32 mg/kg, route oral; conditions: in vivo
[11] = Total clearance in Beagle dog at 0.10 mg/kg, iv by cassette assay; format: ADME, organism-based, Canis lupus familiaris; parameters: dose 0.1 mg/kg, route intravenous; conditions: in vivo, 0.1 mg/kg
[12] = Total clearance in Beagle dog at 0.10 mg/kg, iv; conditions: in vivo, 0.1 mg/kg
[13] = Bioavailability in rat at 0.32 mg/kg, po and iv by cassette assay; format: ADME, organism-based; conditions: in vivo
[14] = Bioavailability in monkey at 0.32 mg/kg, po and iv by cassette assay; format: ADME, organism-based, Macaca mulatta; conditions: rhesus monkey, in vivo
[15] = Terminal half life in Beagle dog plasma at 0.10 mg/kg, iv by cassette assay; format: ADME, organism-based, Canis lupus familiaris; parameters: dose 0.1 mg/kg, route intravenous; conditions: 0.1 mg/kg, read-out: beta t1/2 (converted)
[16] = AUC (0 to 24 hrs) in monkey at 0.32 mg/kg, po by cassette assay; format: ADME, organism-based, Macaca mulatta; parameters: time < 24 hr, dose 0.32 mg/kg, route oral; conditions: rhesus monkey, plasma
[17] = Bioavailability in Beagle dog at 0.10 mg/kg, po and iv; format: ADME, organism-based, Canis lupus familiaris; conditions: in vivo, 0.1 mg/kg
[18] = target: Beta-3 adrenergic receptor (Homo sapiens, UniProt P13945); test: Agonist activity at human recombinant beta3 adrenergic receptor expressed in CHO cells assessed as cAMP accumulation by enzyme immunoassay; format: functional, cell-based
Sequence of Beta-3 adrenergic receptor (Homo sapiens, UniProt P13945) (P13945 whole entry): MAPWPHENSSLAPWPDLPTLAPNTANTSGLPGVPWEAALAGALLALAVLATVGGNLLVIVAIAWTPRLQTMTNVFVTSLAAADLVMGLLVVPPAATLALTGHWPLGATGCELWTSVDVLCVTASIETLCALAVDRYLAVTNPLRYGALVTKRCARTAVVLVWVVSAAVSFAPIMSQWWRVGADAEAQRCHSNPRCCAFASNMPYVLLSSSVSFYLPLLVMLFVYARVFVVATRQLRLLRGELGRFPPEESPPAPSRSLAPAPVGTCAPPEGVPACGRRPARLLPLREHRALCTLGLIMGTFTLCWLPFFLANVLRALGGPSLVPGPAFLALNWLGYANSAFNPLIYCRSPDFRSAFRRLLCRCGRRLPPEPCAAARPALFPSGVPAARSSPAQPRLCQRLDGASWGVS

[19] = AUC (0 to 24 hrs) in rat at 0.32 mg/kg, po by cassette assay; format: ADME, organism-based; parameters: time < 24 hr, dose 0.32 mg/kg, route oral; conditions: plasma
[20] = Terminal half life in rat plasma at 0.32 mg/kg, iv by cassette assay; format: ADME, organism-based; parameters: dose 0.32 mg/kg, route intravenous; conditions: read-out: beta t1/2 (converted)
[21] = Total clearance in rat at 0.32 mg/kg, iv by cassette assay; format: ADME, organism-based; parameters: dose 0.32 mg/kg, route intravenous; conditions: in vivo
[22] = Total clearance in monkey at 0.32 mg/kg, iv by cassette assay; format: ADME, organism-based, Macaca mulatta; parameters: dose 0.32 mg/kg, route intravenous; conditions: rhesus monkey, in vivo
Canis familiaris [23] = test: Inhibition of carbachol-induced increase in intravesical pressure in Beagle dog OAB model at 10 ug/kg, iv for 30 mins measured for 180 mins; format: functional; conditions: Canis lupus familiaris
[24] = Inhibition of KCl-induced tonic contraction in Beagle dog detrusor muscle strips preincubated for 15 mins before KCl challenge; format: functional; conditions: Canis lupus familiaris
[25] = Terminal half life in monkey plasma at 0.32 mg/kg, iv by cassette assay; format: ADME, organism-based, Macaca mulatta; parameters: dose 0.32 mg/kg, route intravenous; conditions: rhesus monkey, read-out: beta t1/2 (converted)
[26] = Terminal half life in Beagle dog at 0.10 mg/kg, po; format: ADME, organism-based, Canis lupus familiaris; parameters: dose 0.1 mg/kg, route oral; conditions: in vivo, 0.1 mg/kg, read-out: beta t1/2 (converted)
[27] = Cmax in Beagle dog at 0.10 mg/kg, po by cassette assay; format: ADME, organism-based, Canis lupus familiaris; parameters: dose 0.1 mg/kg, route oral; conditions: in vivo, 0.1 mg/kg
[28] = Cmax in monkey at 0.32 mg/kg, po by cassette assay; format: ADME, organism-based, Macaca mulatta; parameters: dose 0.32 mg/kg, route oral; conditions: rhesus monkey, in vivo
Canis familiaris [29] = test: Inhibition of carbachol-induced increase in intravesical pressure in intraduodenally dosed Beagle dog OAB model for 30 mins measured for 180 mins; format: functional, organism-based; conditions: Canis lupus familiaris
[30] = Ratio of EC50 for inhibition of KCl-induced tonic contraction in anesthetized Beagle dog detrusor muscle strip to EC50 for dog recombinant beta3 adrenergic receptor expressed in CHO cells; parameters: species or system Canis lupus familiaris
[31] = Metabolic stability in human liver microsomes assessed as intrinsic clearance after 120 mins in presence of NADPH; format: ADME, Microsome
[32] = Metabolic stability in monkey liver microsomes assessed as intrinsic clearance after 120 mins in presence of NADPH; format: ADME, Macaca mulatta, Microsome; conditions: rhesus monkey
Canis familiaris [33] = test: Ratio of Cmax for drug to Cmax for (R)-4'-(2-(2-(3-chlorophenyl)-2-hydroxyethylamino)ethyl)-3-isopropoxybiphenyl-4-carboxylic acid in beagle dog at 0.1 or 0.2 mg/kg, po by cassette assay; format: ADME, organism-based, Canis lupus familiaris; parameters: dose 0.2 mg/kg, route oral; conditions: in vivo
[34] = Metabolic stability in dog liver microsomes assessed as intrinsic clearance after 120 mins in presence of NADPH; format: ADME, Canis lupus familiaris, Microsome

Sequence of Beta-1 adrenergic receptor (P08588 whole entry): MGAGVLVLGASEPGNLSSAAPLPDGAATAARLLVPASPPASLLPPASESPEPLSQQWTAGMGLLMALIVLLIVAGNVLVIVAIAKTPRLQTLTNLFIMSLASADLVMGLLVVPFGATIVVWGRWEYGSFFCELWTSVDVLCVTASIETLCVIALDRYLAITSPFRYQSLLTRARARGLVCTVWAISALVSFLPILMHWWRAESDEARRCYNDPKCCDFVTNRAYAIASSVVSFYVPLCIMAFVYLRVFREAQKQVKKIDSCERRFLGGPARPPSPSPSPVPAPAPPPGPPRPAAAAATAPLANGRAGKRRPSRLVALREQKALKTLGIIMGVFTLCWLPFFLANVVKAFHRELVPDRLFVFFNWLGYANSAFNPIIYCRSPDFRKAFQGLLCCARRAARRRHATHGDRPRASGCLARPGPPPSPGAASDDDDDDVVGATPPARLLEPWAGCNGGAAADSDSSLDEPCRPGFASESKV

Row | SMILES | fraction unbound [1] | EC50 [2] | CLint scaled [4] | EC50 [5] | EC50 ([7]; read-out: EC50) | bioavailability [8] | AUC(0-t) at 24 h [9] | Cmax [10] | clearance [11] | bioavailability [13] | bioavailability [14] | half-life [15] | AUC(0-t) at 24 h [16] | EC50 ([18]; read-out: EC50) | AUC(0-t) at 24 h [19] | inhibition in vivo at 0.01 mg/kg (Canis familiaris [23]) | EC50 ([24]; read-out: EC50) | Cmax [27] | EC50 (Canis familiaris [29]) | ED50 (Canis familiaris [29]) | also measured
1 | CC(C)Sc1cc(-c2ccc(CCNC[C@H](O)c3ccccc3)cc2)ccc1C(=O)NS(C)(=O)=O.Cl | 0.1 | > 1000 nM | 84.3 mL/min/kg | > 10000 nM | 0.68 nM | 75% | 441 ng·h/mL | 9.9 ng/mL | 2.9 mL/min/kg | 41% | 24% | 4.3 h | 143 ng·h/mL | 0.32 nM | 108 ng·h/mL | > 70% | 11.4 nM | 39.8 ng/mL | 8.2 nM | 0.0145 mg/kg | Cmax [3]: 18.2 ng/mL; AUC(0-t) at 24 h [6]: 215 ng·h/mL; clearance [12]: 5.1 mL/min/kg; bioavailability [17]: 62%; half-life [20]: 2.3 h; clearance [21]: 19.6 mL/min/kg; clearance [22]: 9.2 mL/min/kg; half-life [25]: 5.8 h; half-life [26]: 4.8 h; Cmax [28]: 15.7 ng/mL
2 | CS(=O)(=O)NC(=O)c1ccc(-c2ccc(CCNC[C@H](O)c3ccccc3)cc2)cc1OC1CCCCC1.Cl | – | > 1000 nM | – | – | 0.83 nM | 70% | 363 ng·h/mL | – | 3 mL/min/kg | – | – | 7.8 h | – | 0.43 nM | – | 58% | > 50 nM | 22.2 ng/mL | – | – | Ratio EC50 [30]: >50; EC50 ([18]; read-out: pEC50 (converted)): 0.126 nM; EC50 ([24]; read-out: pEC50 (converted)): 12.6 nM
3 | CS(=O)(=O)NC(=O)c1ccc(-c2ccc(CCNC[C@H](O)c3cccnc3)cc2)cc1OC1CCCCC1.Cl.Cl | 0.17 | 800 nM | 46.9 mL/min/kg | > 10000 nM | 1.4 nM | 81% | 385 ng·h/mL | 17 ng/mL | 3.2 mL/min/kg | 25% | 38% | 5.5 h | 272 ng·h/mL | 0.13 nM | 72.2 ng·h/mL | > 70% | 62 nM | 34.5 ng/mL | 26.5 nM | 0.0162 mg/kg | CLint scaled [31]: 3.5 mL/min/kg; Ratio EC50 [30]: >50; half-life [20]: 3 h; clearance [21]: 17.1 mL/min/kg; clearance [22]: 7.5 mL/min/kg; half-life [25]: 4.7 h; CLint scaled [32]: 3.4 mL/min/kg; Cmax [28]: 35.1 ng/mL
4 | O=C(O)c1ccc(-c2ccc(CCNC[C@H](O)c3cccnc3)cc2)cc1OC1CCCCC1 | 0.11 | – | – | > 10000 nM | – | – | – | – | – | – | – | – | – | – | – | – | 14.1 nM | – | 4 nM | 0.065 mg/kg | EC50 ([7]; read-out: pEC50 (converted)): 1.26 nM; Ratio (Canis familiaris [33]): 0.48; EC50 ([18]; read-out: pEC50 (converted)): 0.251 nM; EC50 ([24]; read-out: pEC50 (converted)): 5.01 nM
5 | CC(C)Oc1cc(-c2ccc(CCNC[C@H](O)c3cccnc3)cc2)ccc1C(=O)O | – | – | – | > 10000 nM | – | – | – | – | – | – | – | – | – | – | – | – | – | – | – | – | EC50 ([7]; read-out: pEC50 (converted)): 10 nM; Ratio (Canis familiaris [33]): 0.65; EC50 ([18]; read-out: pEC50 (converted)): 1.58 nM; EC50 ([24]; read-out: pEC50 (converted)): 7.94 nM
6 | CC(C)Nc1cc(-c2ccc(CCNC[C@H](O)c3ccccc3)cc2)ccc1C(=O)NS(C)(=O)=O.Cl.Cl | 0.1 | 260 nM | 36 mL/min/kg | > 10000 nM | 1.1 nM | 45% | 95.8 ng·h/mL | 14.9 ng/mL | 7.5 mL/min/kg | 20% | 10% | 6.3 h | 19.3 ng·h/mL | 0.6 nM | 60.9 ng·h/mL | > 70% | 1.2 nM | 8.6 ng/mL | 7.1 nM | 0.0349 mg/kg | half-life [20]: 4.1 h; clearance [21]: 16.9 mL/min/kg; clearance [22]: 25.9 mL/min/kg; half-life [25]: 3.1 h; CLint scaled [32]: 5.4 mL/min/kg; Cmax [28]: 2.7 ng/mL; CLint scaled [34]: 3.3 mL/min/kg
